Measured values: ChEMBL document CHEMBL4396953, “Synthesis and highly potent anti-inflammatory activity of licofelone- and ketorolac-based 1-arylpyrrolizin-3-ones” (2019)

Key:
Type in all cases: functional
Mus musculus [1] = assay: Antiinflammatory activity in CD1 mouse model of TPA-induced ear edema assessed as inhibition of ear edema at 2 mg/ear administered topically after TPA challenge for 30 mins and measured after 6 hrs post administration relative to control
Mus musculus [2] = assay: Antiinflammatory activity in CD1 mouse model of TPA-induced ear edema assessed as ear edema formation at 2 mg/ear administered topically after TPA challenge for 30 mins and measured after 6 hrs post administration (reference value: 17.61 to 19.82 mg)
Mus musculus [3] = assay: Antiinflammatory activity in CD1 mouse model of TPA-induced ear edema assessed as inhibition of ear edema at 0.5 mg/ear administered topically after TPA challenge for 30 mins and measured after 6 hrs post administration relative to control
Mus musculus [4] = assay: Antiinflammatory activity in CD1 mouse model of TPA-induced ear edema assessed as inhibition of ear edema at 1 mg/ear administered topically after TPA challenge for 30 mins and measured after 6 hrs post administration relative to control
Mus musculus [5] = assay: Antiinflammatory activity in CD1 mouse model of TPA-induced ear edema assessed as ear edema formation at 0.5 mg/ear administered topically after TPA challenge for 30 mins and measured after 6 hrs post administration (reference value: 17.61 to 19.82 mg)
Mus musculus [6] = assay: Antiinflammatory activity in CD1 mouse model of TPA-induced ear edema assessed as ear edema formation at 1 mg/ear administered topically after TPA challenge for 30 mins and measured after 6 hrs post administration (reference value: 17.61 to 19.82 mg)
Mus musculus [7] = assay: Antiinflammatory activity in CD1 mouse model of TPA-induced ear edema assessed as reduction in ear edema formation administered topically after TPA challenge for 30 mins and measured after 6 hrs post administration
J774.A1 = assay: Antiinflammatory activity in mouse J774A.1 cells LPS-induced NO production at 25 ug/ml incubated for 2 hrs followed by LPS-stimulation measured after 24 hrs by Griess assay relative to control

Structure (SMILES)	inhibition (INH) (Mus musculus [1])	Activity (Mus musculus [2]) [mg]	inhibition (INH) (Mus musculus [3])	inhibition (INH) (Mus musculus [4])	Activity (Mus musculus [5]) [mg]	Activity (Mus musculus [6]) [mg]	Activity (Mus musculus [7])	ED50 (Mus musculus [7]) [mg]	Activity (J774.A1) [%]
COC(=O)C1=C(c2ccc(Br)cc2)c2cccn2C1=O	40.88%	11.72	8.46%	29.73%	18.14	13.93	Dose-dependent effect	3.23	
COC(=O)/C(=C\N(C)C)n1cccc1C=O	21.37%	14.09							
COc1ccc2c(c1)c(CC(=O)O)c(C)n2C(=O)c1ccc(Cl)cc1 [INDOMETHACIN]	41.47 - 61.1%	6.99 to 10.49	32.12 - 41.44%	41.97 - 52.37%	1.22 to 11.51	9.01 to 9.44	Dose-dependent effect	1.07 to 1.29	64.63
COC(=O)C1=C(c2ccc([N+](=O)[O-])cc2)c2cccn2C1=O	53.43%	9.2	8.52%	24.1%	18.13	15.04	Dose-dependent effect	1.86	
COC(=O)Cn1cccc1C=O	33.73%	11.87							
